Source: patent publication US20230255943A1, “MMP-9 AND MMP-12 INHIBITION FOR TREATING SPINAL CORD INJURY OR RELATED INJURY TO NEUROLOGICAL TISSUE” (The University of Birmingham, priority 2020, published 2023)

Key:
SCI-induced oedema = assay: Example 3: spinal cord water content with aquaporin-4 relocalisation inhibitors; conditions: in vivo
Protocol: (§1) The lesion site+3 mm either side for mice and the lesion site+5 mm either side for the rat DC model were dissected out and the water content of the spinal cord (as a measure of oedema) was determined at 3 days after DC and CC SCI, as described previously (S. Li, C. H. Tator, Effects of MK801 on evoked potentials, spinal cord blood flow and cord edema in acute spinal cord injury in rats. Spinal Cord 37, 820-832 (1999)). Spinal cords containing the lesion site were weighed on aluminium foil, dried at 105° C. for 24 hr, and re-weighed. The percent water content was calculated as: water content (%)=[(wet weight-dry weight)/wet weight]×100%.
Using similar techniques to those described in Example 1, the water content in the spinal cord as a measure of injury-induced oedema was determined for various agents and aquaporin-4 inhibitors, namely TFP, PKAi, PKCi and TGN-020—see FIG. 21.

[1] = tested on: mice with DC crush injury; assay: Spinal cord water content (oedema) after DC crush injury in mice; assay type: in vivo, mouse; conditions: 3 days after DC injury; doses and routes of Table 1; vs DC+vehicle
Protocol: For oral delivery of AZD1236, n=6 adult male C57BL6 mice/group (Charles River, Margate, UK) were randomly allocated to either: (1), Sham (control; partial laminectomy but no DC crush injury); (2), DC crush injury+vehicle (partial laminectomy followed by DC crush injury and injection of vehicle); (3), DC crush injury+100 mg/kg AZD1236; (4), DC crush injury+200 mg/kg AZD1236; and (5), DC crush injury+300 mg/kg AZD1236. For intrathecal (it) delivery of AZD1236, adult male C57BL6 mice (25-30 g) (Charles River, Margate, UK) were randomly allocated to either: (1), Sham (control; partial laminectomy but no DC crush injury); (2), DC crush injury+vehicle (partial laminectomy followed by DC crush injury and injection of vehicle); (3), DC crush injury+2.5 mg/kg AZD1236; (4), DC crush injury+5 mg/kg AZD1236; and (5), DC crush injury+10 mg/kg AZD1236. For intrathecal delivery an indwelling atlanto-occipital intrathecal catheter was inserted into the intrathecal space, as described previously (F. A. Oladosu, B. P. Ciszek, S. C. O'Buckley, A. G. Nackley, Novel intrathecal and subcutaneous catheter delivery systems in the mouse. J Neurosci Methods 264, 119-128 (2016)). Briefly, with mice in the sternal recumbency a small incision was made at the nape of the neck followed by detachment of the muscles on either side of the external occipital crest to expose the A-O membrane. The membrane was incised and a 6 cm Alzet mouse intrathecal catheter (Alzet, Cupertino, Calif., USA) and polyurethane segments were gently guided 2.5 cm into the intrathecal space. The catheter was secured using 4-0 silk sutures (Oasis Medical, IL) and the exposed end of the catheter was sealed off with a stainless-steel plug and affixed to the upper back. Animals were injected immediately with vehicle or AZD1236 followed by a 10 μl PBS catheter flush. Injections were repeated every twice daily for the first 3 days after injury and drugs and vehicle reagents were delivered over 1 min time period using a Hamilton microlitre syringe (Hamilton Co, USA). Where specified intact animals with no surgical procedures were also used. All lesions were administered under 5% isofluorane induced inhalation anaesthesia, with 1.51/min O2. Pre- and post-injury analgesia was also provided.
DC crush injury was administered bilaterally at the T8 vertebral level as described previously (S. Surey, M. Berry, A. Logan, R. Bicknell, Z. Ahmed, Differential cavitation, angiogenesis and wound-healing responses in injured mouse and rat spinal cords. Neuroscience 275, 62-80 (2014); M. L. Read, S. Mir, R. Spice, R. J. Seabright, E. L. Suggate, Z. Ahmed, M. Berry, A. Logan, Profiling RNA interference (RNAi)-mediated toxicity in neural cultures for effective short interfering RNA design. J Gene Med 11, 523-534 (2009)). Briefly, calibrated watchmaker's forceps were separated by 0.5 mm and inserted through the dorsal cord meninges to a depth of 0.45 mm in mice and separated by 1 mm and inserted through the dorsal cord meninges to a depth of 1.0 mm in rats, and the DC were crushed for 3 seconds. AZD1236 or vehicle was administered twice daily by oral gavage or intrathecally, either immediately for the first 3 days or 24 hours after injury and treating twice daily until day 4 (i.e. 3 days of AZD1236 dosing). All experiments were performed with n=6 mice/group and repeated on at least 2-3 independent occasions (total=12-18 animals/group/test).
as §1, with “The percent water content was calculated as: water content (%)=[(wet weight-dry weight)/wet weight]×100%.” left out

[2] = tested on: rats with DC crush injury; assay: Spinal cord water content after DC injury in rats; assay type: in vivo; conditions: rat DC injury, oral, 3 days
Protocol: DC crush injury was administered bilaterally at the T8 vertebral level as described previously (S. Surey, M. Berry, A. Logan, R. Bicknell, Z. Ahmed, Differential cavitation, angiogenesis and wound-healing responses in injured mouse and rat spinal cords. Neuroscience 275, 62-80 (2014); M. L. Read, S. Mir, R. Spice, R. J. Seabright, E. L. Suggate, Z. Ahmed, M. Berry, A. Logan, Profiling RNA interference (RNAi)-mediated toxicity in neural cultures for effective short interfering RNA design. J Gene Med 11, 523-534 (2009)). […]
The efficacy of oral AZD3342 in the DC injury model in adult Sprague-Dawley rat was also assessed. […]
as §1, with “Spinal cords containing the lesion site were weighed on aluminium foil, dried at 105° C. for 24 hr, and re-weighed.” left out

IL-1β, TNF-α and IL-6 [3] = assay: Proinflammatory pain cytokines after DC injury in rats; assay type: in vivo; conditions: rat DC injury, oral
Protocol: The efficacy of oral AZD3342 in the DC injury model in adult Sprague-Dawley rat was also assessed. Animals were divided into 6 groups: (1), Sham (control); (2), DC crush injury+Vehicle; (3), DC crush injury+15 mg/kg AZD3342; (4), DC crush injury+75 mg/kg […]; (5), DC crush injury+375 mg/kg AZD3342; and (6), DC crush injury+Melatonin. Animals were dosed twice daily with oral AZD3342 or vehicle with the experimenters masked to the treatment conditions. These experiments were performed with n=6 rats/group and repeated on 2-3 independent occasions (total n=12-18 rats/group/test).
The lesion site+5 mm either side (DC and CC SCI, n=6 mice/rats/group, 2 independent repeats (total n=12 mice/rats/group)) was dissected and rapidly frozen in liquid N2 and stored at −80° C. until required. […] The levels of mRNA of MMP-9, MMP-12, IL-1β, TNF-α and IL-6 were determined using pre-validated mouse primer sequences from complimentary DNA prepared from extracted mRNA and qRT-PCR was performed using a LightCycler PCR machine (Roche, Burgess Hill, UK) (M. L. Read, S. Mir, R. Spice, R. J. Seabright, E. L. Suggate, Z. Ahmed, M. Berry, A. Logan, Profiling RNA interference (RNAi)-mediated toxicity in neural cultures for effective short interfering RNA design. J Gene Med 11, 523-534 (2009)). […]

[4] = tested on: mice with DC crush injury; assay: CSF biomarkers of SCI (S100β, NSE, GFAP, pNF-H, NF-L); assay type: in vivo, mouse; conditions: 3 d after injury
IL-1β, TNF-α and IL-6 [5] = assay: Proinflammatory pain markers after CC SCI in mice; assay type: in vivo, mouse; conditions: oral gavage immediately after injury
Protocol: CC SCI was administered at the T7-T8 vertebral level after exposure of T6-T9 by laminectomy. The aneurysm clip applicator was oriented in a bilateral direction and an aneurysm clip with a closing force of 24 g was applied extradurally for 60 s, as described previously (A. S. Rivlin, C. H. Tator, Effect of duration of acute spinal cord compression in a new acute cord injury model in the rat. Surg Neurol 10, 38-43 (1978):E. Esposito, I. Paterniti, E. Mazzon, T. Genovese, M. Galuppo, R. Meli, P. Bramanti, S. Cuzzocrea, MK801 attenuates secondary injury in a mouse experimental compression model of spinal cord trauma. BMC Neurosci 12, 31 (2011)).
The urinary bladders were manually emptied twice daily until bladder function was regained. Adult male C57BL6 mice (25-30 g) (Charles River, Margate, UK) were randomly allocated to either: (1), Sham (control; laminectomy but no CC SCI); (2), CC SCI+vehicle; (3), CC SCI+200 mg/kg AZD1236 (oral); (4), CC SCI+5 mg/kg AZD1236 (it). All experiments were performed with n=6 mice/group and repeated on 3 independent occasions (total=18 mice/group/test).
The lesion site+5 mm either side (DC and CC SCI, n=6 mice/rats/group, 2 independent repeats (total n=12 mice/rats/group)) was dissected and rapidly frozen in liquid N2 and stored at −80° C. until required. […] The levels of mRNA of MMP-9, MMP-12, IL-1β, TNF-α and IL-6 were determined using pre-validated mouse primer sequences from complimentary DNA prepared from extracted mRNA and qRT-PCR was performed using a LightCycler PCR machine (Roche, Burgess Hill, UK) (M. L. Read, S. Mir, R. Spice, R. J. Seabright, E. L. Suggate, Z. Ahmed, M. Berry, A. Logan, Profiling RNA interference (RNAi)-mediated toxicity in neural cultures for effective short interfering RNA design. J Gene Med 11, 523-534 (2009)). […] Fold changes were computed using the ΔΔCt method (M. L. Read, S. Mir, R. Spice, R. J. Seabright, E. L. Suggate, Z. Ahmed, M. Berry, A. Logan, Profiling RNA interference (RNAi)-mediated toxicity in neural cultures for effective short interfering RNA design. J Gene Med 11, 523-534 (2009).

[6] = tested on: J774A.1, RAW 264.7 and primary mouse peritoneal macrophages; assay: Transwell migration assay of macrophages; assay type: cell-based; conditions: J774A.1 and RAW 264.7, 3 h
Protocol: J774A.1 cells (#TIB-67; ATCC, Middlesex, UK) were cultured in DMEM supplemented with 10% FBS, 100 U/ml penicillin, 100 μg/ml streptomycin, and 0.25 μg amphotericin B. Cells were seeded in T75 tissue-culture flasks and maintained at 37° C. and 5% CO2. RAW 264.7 cells (#TIB-71; ATCC) were maintained in DMEM containing 10% FBS.
Resident peritoneal cells were harvested from adult C57BL/6 mice (6-8 weeks old) by injection of 10 ml of PBS using a 21G needle into the peritoneal cavity and harvesting the cell suspension, as described previously (Rosas M, Davies L C, Giles P J, Liao C T, Kharfan B, Stone T C, et aL. The transcription factor Gata6 links tissue macrophage phenotype and proliferative renewal. Science 2014; 344(6184): 645-8). Peritoneal cells were then centrifuged at 100×g for 10 min and the cell pellet resuspended in DMEM/F12 medium. Cell were incubated at 37° C., for 2 h and non-adherent cells were removed by gentle washing. Cells were expanded in DMEM/F12 medium containing 10% FBS. For migration assays, cells were grown in RPMI containing 0.02% BSA for 24 h to obtain quiescent cells prior to using them in Transwell migration assays as described below.
Migration assays were performed with J774A.1, RAW 264.7 and primary mouse peritoneal macrophages in 6.5 mm Transwell plates (ThermoFisher) with 8 μm pore inserts, as described previously (Green et al., 2012). Briefly, inserts were coated with rat tail type I collagen and 1×10^5 cells (J774A.1, RAW 264.7 or primary mouse macrophages) were resuspended in chemotaxis buffer (RMPI 1640 plus 0.02% BSA, (termed RPMI from herein)) and added to the upper chamber and incubated with migration medium, with or without known chemotactic factors MCP-1 (100 ng/ml) and PMA (100 nM), or AZD1236, GM6001, SD2590 and MMP-9 Inhibitor I (all used at 1, 10, 100, 1000 ng/ml) added to the lower chamber. Cells were allowed to migrate through the insert membrane for 3 h at 37° C., before washing inserts with PBS. Non-migrating cells remaining on the upper surface were removed with a cotton swab whilst the migrated cells on the insert were fixed, stained with Diff-Quick (#26096, Electron Microscopy Science, Hatfield, UK), and mounted on glass slides. Migration was measured visually by counting using a light microscope at 40× magnification. The mean number of cells in 10 random fields were calculated for each treatment by an experimenter masked to the treatment conditions. A migration index was calculated by dividing the number of cells that migrated in response to the chemokine by the number of cells that migrated randomly (RPMI medium) with a reference index>1, indicating chemotaxis.

[7] = tested on: mice with DC crush injury; assay: Spinal cord water content (oedema) after DC crush injury in mice; assay type: in vivo, mouse; conditions: IP, twice daily

CN1CCN(CCCN2c3ccccc3Sc3ccc(C(F)(F)F)cc32)CC1 [TFP, trifluoperazine]
SCI-induced oedema, water content (FIG. 21) (SCI-induced oedema): suppress SCI-induced oedema

Nc1nc2ccc(OC(F)(F)F)cc2s1 [Riluzole, reference compound]
spinal cord water content, comparison of MMP inhibitors (FIG. 4) [1]: significantly reduced spinal cord water content

COc1ccc2[nH]cc(CCNC(C)=O)c2c1 [melatonin, reference compound]
SCI-induced edema (spinal cord water content) [2]: marginal effect | spinal cord water content, comparison of MMP inhibitors (FIG. 4) [1]: significantly reduced spinal cord water content | expression of proinflammatory pain cytokines (IL-1β, TNF-α and IL-6 [3]): small effect | levels of S100β, NSE, GFAP, pNF-H and NF-L in CSF [4]: marginally reduced

NCC1(CC(=O)O)CCCCC1 [gabapentin]
proinflammatory pain markers after CC injury, comparison with pain medications (FIG. 7) (IL-1β, TNF-α and IL-6 [5]): much less effective

COc1ccc(Cl)cc1C(=O)NCCc1ccc(S(=O)(=O)NC(=O)NC2CCCCC2)cc1 [Glibenclamide, reference compound]
spinal cord water content, comparison of MMP inhibitors (FIG. 4) [1]: significantly reduced spinal cord water content

CCCCCCCCCCCCCC(=O)O[C@@H]1[C@@H](C)[C@@]2(O)[C@@H](C=C(CO)C[C@]3(O)C(=O)C(C)=C[C@@H]23)[C@@H]2C(C)(C)[C@]12OC(C)=O [PMA]
macrophage migration (migration index, chemotaxis) [6]: stimulated significant chemotaxis

COC(=O)Nc1ccc2oc3cc(S(=O)(=O)N[C@@H](C(=O)O)C(C)C)ccc3c2c1 [MMP408]
SCI-induced oedema with tool inhibitors singly or in combination (FIG. 3D) [7]: suboptimal therapeutic benefits

CC(C)C[C@H](CN)CC(=O)O [pregabalin]
proinflammatory pain markers after CC injury, comparison with pain medications (FIG. 7) (IL-1β, TNF-α and IL-6 [5]): much less effective

MCP-1: known chemotactic factor, positive control in migration assay
macrophage migration (migration index, chemotaxis) [6]: stimulated significant chemotaxis
